{"source": "patent US20240074473A1", "about": "“METHOD FOR INDUCING HYPERTROPHIC MUSCLE FIBERS FOR INDUSTRIAL MEAT PRODUCTION” (Yeda Research and Development Co. Ltd., priority 2021, published 2024)", "assay_type_in_all_cases": "cell-based", "key": {"primary mouse myoblasts [1]": {"test_system": "primary mouse myoblasts", "experiment": "Fusion index of primary mouse myoblasts (MyHC immunostaining)", "conditions": "first passage mouse primary myoblasts, 24 hours; 1 μM ERKi in growth medium vs. DM", "description": "Isolation of and treatment of primary myoblasts. Primary mouse myoblasts were isolated from gastrocnemius muscle using trypsin-tissue dissociation. Briefly, muscle tissues were incubated in Trypsin B (0.25%, Biological Industries) and subjected to mechanical dissociation with a serological pipet. Supernatants were strained and centrifuged. Pellets were grown resuspended in BioAmf-2 media (Biological Industries, Israel) and plated on 10% Matrigel (BD Biosciences)-coated plates at 37° and 5% CO2. For all in vitro experiments, proliferation medium was Bio-Amf2 (Biological Industries, Israel) and Differentiation medium (DM) was DMEM 2% Horse Serum (HS) with 1% Pen/Strep. For fusion assays, cells were trypsinized with Trypsin C (0.05%, Biological Industries) and subjected to two rounds of preplating on uncoated plates to reduce the number of fibroblasts. Cells were plated at a density of 8×10^3 per well in 10% Matrigel-coated 96-well plates in proliferation medium for 24 hours. The following day, proliferation media was replaced either with proliferation media or with DM containing DMSO (Ctrl) or 1 μM ERK1/2 inhibitor (ERKi; SCH772984, Cayman Chemicals), […] RXR antagonist (RXRi; HX-531, Cayman Chemicals), […] Ryanodine receptor antagonist (RYRi; Dantrolene, Cayman Chemicals), 5 μM CaMKII inhibitor (CaMKIIi; KN93, Cayman Chemicals), or with DM for controls.\n(§1) Immunofluorescence staining. First passage primary myoblasts isolated from various strains (indicated in figure legends) were plated in 96-well plates or chamber slides and treated as previously described. The cells were fixed with ice cold 4% PFA in PBS for 10 minutes, permeabilized with 0.5% Triton X-100 in PBS for 6 minutes, and blocked in PBS with 0.025% tween, 10% normal horse serum and 10% normal goat serum for 1 hour at room temperature. Primary antibody incubation was done in blocking buffer overnight at 4 degrees, with the following antibodies: Myosin Heavy Chain (MyHC, MF20, DSHB hybridoma supernatant 1:10, or MY-32 ABCAM ab51263 1:400), Myogenin (MYOG sc-13137 SCBT 1:200), pHistone 3 (PH3, ab47297 ABCAM 1:1000), Ki-67 (Cell Marque #275R), RYR (ab2868 ABCAM 1:100), and pCaMKII (SIGMA SAB4504356 1:100). Cells were washed 3 times in PBS with 0.025% tween and then incubated with appropriate secondary antibodies in PBS 1 hour. Where indicated, nuclei were either labeled with DAPI (SIGMA D9542, 5 ug/ml) or Hoechst 33342 (Thermo scientific #62249, 1:2000). Fixed cells at 24 hours post treatment with indicated inhibitors were imaged using the Nikon Eclipse Ti2 microscope (further described in microscopy section). All analysis was performed on at least 1000 nuclei. […]\nQuantification of fusion index. Following immunostaining and imaging, a fusion index was quantified by manually identifying nuclei found in a MyHC positive cell with at least 2 nuclei. Then the values were expressed as a percentage of the total nuclei per field. Briefly, in Figures where fusion index is stratified into subgroups of fiber size, the nuclei number in MyHC positive cell was manually quantified in a given field and stratified into groups of mononucleated, bi-nucleated myotubes, myotubes with 3-10 nuclei and myotubes with greater than 10 nuclei. […] Fields were analyzed hourly, and nuclei per cell was quantified and stratified into mononucleated, bi-nucleated, tri-nucleated and cells with ≥4 nuclei."}, "chicken myoblasts": {"test_system": "chicken myoblasts", "experiment": "qRT-PCR gene expression in chicken myoblasts", "description": "Quantitative real-time PCR (qRT-PCR). Total RNA was isolated using Tri-Reagent (SIGMA) according to the manufacturer's instructions. cDNA was synthesized with the High Capacity cDNA Reverse Transcription Kit (Applied Biosystems according to the manufacturer's instructions. qRT-PCR was performed with SYBR green PCR Master Mix (Applied Biosystems) using the StepOnePlus Real-time PCR system (Applied Biosystems). Values for specific genes were normalize to either Gapdh or Hprt housekeeping control as indicated in Figure legend. Expression was calculated using the ddCT method.\nChicken primary derived myoblasts were used as a model to evaluate the efficiency of SCH772984 as the ERKi, compared to conventional differentiation medium (DM) for the purpose of producing muscle (meat) in tissue culture conditions. Chicken myoblasts were isolated from chicken embryos and expanded in proliferation medium. When sufficient cell numbers were acquired, cells were seeded on tissue culture plates and allowed to adhere for 24 hours. Then medium was changed to either PM supplemented with ERKi or DM. At 24-hours post treatment, the cells that received ERKi were replenished with fresh PM (without the addition of more ERKi), and DM treated cells were replenished with fresh DM. Media was replaced daily over a period of 72 hours."}, "primary mouse myoblasts [2]": {"test_system": "primary mouse myoblasts", "experiment": "Proliferation markers KI-67 and pH3 staining in primary mouse myoblasts", "conditions": "1 μM ERKi, 24 hours", "description": "as §1"}}}
{"smiles": "O=C(Nc1ccc2[nH]nc(-c3ccncc3)c2c1)[C@@H]1CCN(CC(=O)N2CCN(c3ccc(-c4ncccn4)cc3)CC2)C1", "note": "[SCH772984]", "values": [{"measurement": "Fusion index (fraction of nuclei in differentiated MyHC+ cells)", "setting": "primary mouse myoblasts [1]", "value": 90.5, "unit": "%"}, {"measurement": "Gene expression of maturation/differentiation markers mrf4, myh1, myh2, tnnt3 compared with DM", "setting": "chicken myoblasts", "value": "elevated gene expression"}, {"measurement": "Downregulation of Myf5 expression compared to DM", "setting": "chicken myoblasts; 72 hour timecourse", "value": "stronger across all time points"}, {"measurement": "Pax7 RNA expression", "setting": "chicken myoblasts; 72 hour timecourse", "value": "reduction"}, {"measurement": "Cell cycle (KI-67 and phosphorylated Histone 3 staining)", "setting": "primary mouse myoblasts [2]", "value": "undergo cell-cycle arrest"}]}
